Reference: patent US20020103251A1, “Cholesterol-lowering therapy” (priority 1997, published 2002)

Legend:
[1] = tested on: men and women with average to mildly elevated total and LDL-cholesterol, below average HDL-cholesterol and no clinical evidence of atherosclerotic …; assay: AFCAPS/TexCAPS double-blind, randomized, placebo controlled primary prevention trial of lovastatin; format: in vivo, human
Description: The following is a description of a clinical trial referred to herein as “AFCAPS/TexCAPS” or “AFCAPS” employing lovastatin to exemplify the methods of the present invention.
AFCAPS/TexCAPS was a primary prevention endpoint event trial which: (1) included unstable angina as a primary endpoint, reflecting the trend to treat coronary heart disease aggressively before a myocardial infarction has occurred; 2) involved aggressive pharmacologic intervention, with titration, to target an LDL-cholesterol goal lower than current National Cholesterol Education Panel guidelines for primary prevention; and 3) included a cohort comprised of men and women with a broad age range encompassing the elderly and included persons with a lipid profile consisting of average total and LDL-cholesterol, below average HDL-cholesterol levels; total cholesterol/HDL-cholesterol ratio greater than or equal to 4.5, with a baseline mean ratio of 6.1 for the cohort; and LDL/HDL-cholesterol ratio greater than or equal to 4.
Entrance inclusion criteria were LDL-cholesterol 130-190 mg/dl (or <130 if the ratio of total cholesterol/HDL is >6) and HDL-cholesterol ≦45 mg/dl for men and ≦47 mg/dl for women.
AFCAPS/TexCAPS was a double-blind, randomized, placebo controlled trial designed and powered to investigate whether chronic lipid-lowering, with lovastatin will decrease the rate of first acute major coronary events (e.g. sudden cardiac death, fatal and non-fatal myocardial infarction and unstable angina) compared to intervention with diet alone during at least 4.5 years of follow-up in a cohort without clinical evidence of atherosclerotic cardiovascular disease and with average to mildly elevated total cholesterol, average to midly elevated LDL-cholesterol, and below average HDL-cholesterol. Secondary objectives included whether chronic treatment with lovastatin, compared to placebo, would decrease cardiovascular morbidity and mortality across the spectrum of clinical events, by measuring the rates of: (1) fatal and non-fatal coronary revascularization procedures (2) unstable angina, (3) fatal and non-fatal myocardial infarction, (4) fatal and non-fatal cardiovascular events, (5) fatal and non-fatal coronary events.
All participants underwent dietitian taught group instruction in the American Heart Association Step 1 diet commencing at least 12 weeks prior to randomization (Week -12) and reinforced at Weeks-4 and -2. Baseline observations included collection of medical history, health habit and demographic data, physical exam, eye exam (San Antonio clinic only), chest X-ray, mammogram (women), electrocardiogram and analysis of lipids/lipoproteins, hematology, blood chemistry and urine. A 2-week placebo baseline run-in was followed by randomization of eligible compliant participants to treatment with lovastatin or placebo.
Participants included 6605 men and women with normal to mildly elevated total and LDL-cholesterol and below average HDL-cholesterol defined as: total cholesterol 180-264 mg/dl, LDL-cholesterol 130-190 mg/dl, HDL-cholesterol ≦45 mg/dl for men and ≦47 mg/dl for women and triglycerides ≦400 mg/dl. All lipid/lipoprotein entrance criteria had to be met on average at both four and two weeks prior to randomization (after at least eight weeks of diet therapy). In addition, for both total and LDL-cholesterol, the two eligibility determinations had to be within 15% of each other.
Excluded for clinical evidence of atherosclerotic cardiovascular disease were men and women who had: prior history of myocardial infarction; angina; claudication; cerebrovascular accident; or transient ischemic attack. Also excluded were those aged >73 years or <45 years (men) or <55 years (women) or those with secondary hyperlipoproteinemia, nephrotic syndrome, uncontrolled or insulin-dependent diabetes mellitus or uncontrolled hypertension.

[2] = tested on: patients with hypercholesterolemia and/or CHD; conditions: coronary and carotid arteries; cited from earlier work
[3] = Secondary Endpoint: Fatal and Nonfatal Coronary Events, lovastatin vs placebo
[4] = first acute major coronary events, baseline HDL-C tertile 34.5-39.5 mg/dl
[5] = first acute major coronary events, baseline HDL-C tertile <34.0 mg/dl
[6] = first acute major coronary events, baseline HDL-C tertile >39.5 mg/dl
[7] = first acute major coronary events, baseline LDL-C tertile 142.0-156.8 mg/dl
[8] = first acute major coronary events, baseline LDL-C tertile <142 mg/dl
[9] = first acute major coronary events, baseline LDL-C tertile >156.9 mg/dl

For `CC[C@H](C)C(=O)O[C@H]1C[C@@H](C)C=C2C=C[C@H](C)[C@H](CC[C@@H]3C[C@@H](O)CC(=O)O3)[C@H]21` [lovastatin], the “Relative Risk (C.I.)” value ([1]; Primary Endpoint: acute major coronary events, lovastatin 20-40 mg once a day vs placebo, median 5.2 years) was 0.63 (0.50, 0.79),, the “Relative Risk (C.I.)” value ([1]; Secondary Endpoint: Fatal and Nonfatal Cardiovascular Events, lovastatin vs placebo) was 0.75 (0.62, 0.91), and the “Relative Risk (C.I.)” value [1, 3] was 0.75 (0.61, 0.92),. The “Risk Reduction” value [1, 3] was 25%, the “Relative Risk (C.I.)” value ([1]; Secondary Endpoint: Fatal and Nonfatal MI, lovastatin vs placebo) was 0.60 (0.43, 0.83), and the “Relative Risk (C.I.)” value ([1]; Secondary Endpoint: Revascularizations, lovastatin vs placebo) was 0.67 (0.52, 0.85),. The “Relative Risk (C.I.)” value ([1]; Secondary Endpoint: Unstable Angina, lovastatin vs placebo) was 0.68 (0.48, 0.95),, the “% change in HDL-C from baseline to the one year point” value (from here on “% change in HDL-C from baseline”) ([1]; baseline HDL-C tertile 34.5-39.5 mg/dl) was 6.2% and the “% change in HDL-C from baseline” value ([1]; baseline HDL-C tertile <34.0 mg/dl) was 7.4%. The “% change in HDL-C from baseline” value ([1]; baseline HDL-C tertile >39.5 mg/dl) was 4.3%, the “% change in LDL-C from baseline to the one year point” value (“% change in LDL-C from baseline” below) ([1]; baseline LDL-C tertile 142.0-156.8 mg/dl) was −26.0% and the “% change in LDL-C from baseline” value ([1]; baseline LDL-C tertile <142 mg/dl) was −20.1%. For the same compound, the “% change in LDL-C from baseline” value ([1]; baseline LDL-C tertile >156.9 mg/dl) was −28.9%, the “dependence of risk reduction on baseline LDL-C and HDL-C” value ([1]; first acute major coronary events by LDL-C and HDL-C tertiles at randomization) was “independent of baseline LDL-C and HDL-C” and the “Relative Risk (95% C.I.)” value [1, 4] was 0.57. The “Risk Reduction” value [1, 4] was 43%, the “Relative Risk (95% C.I.)” value [1, 5] was 0.55 and the “Risk Reduction” value [1, 5] was 45%. For the same compound, the “Relative Risk (95% C.I.)” value [1, 6] was 0.85, the “Risk Reduction” value [1, 6] was 15% and the “Relative Risk (95% C.I.)” value [1, 7] was 0.64. For the same compound, the “Risk Reduction” value [1, 7] was 36%, the “Relative Risk (95% C.I.)” value [1, 8] was 0.66 and the “Risk Reduction” value [1, 8] was 34%. The “Relative Risk (95% C.I.)” value [1, 9] was 0.59, the “Risk Reduction” value [1, 9] was 41% and the “progression of atherosclerotic lesions” value [2] was “slow the progression of atherosclerotic lesions”.
